# How the values were obtained:
# SKMEL-28 mitochondria = experiment: 2-D gel electrophoresis of mitochondria enriched samples; assay type: cell-based
# ATP Citrate Lyase (ACL) = experiment: Western blot, ATP Citrate Lyase levels; assay type: cell-based, human; settings: for ATP Citrate Lysase as % of CTRL, Normalized Intensity: 48 h
# Protocol: After transfer each of the blots was placed in between 2 Whatman Filter papers and dried for 15-20 minutes. After drying the blots were labeled with the date, the type of samples and either blot 1 or blot 2 using a HB pencil. The molecular weight markers were outlined with the pencil and with single lines for the blue and a doublet for the colored markers. The blots were activated with methanol for 5 seconds, washed with water for 5 minutes, and TBST for 15 minutes. The blots were blocked for 1 hour with 5% blocking reagent in TBS-T at room temperature and then washed 3 times with TBS-T (1×-15′; 2×5′ each). Blot 1 was probed with the primary antibody for IDH1 (Cell Signaling #3997) in TBST with 5% BSA (at 1:1000 dilutions) and blot 2 with the rabbit polyclonal antibody for ATP Citrate Lyase in 5% BSA (Cell Signaling #4332) at 1:1000 dilution by incubation overnight at 4 deg C. with shaking. After the overnight incubation with primary antibodies, the blots were washed 3 times with TBS-T (1×-15′; 2×5′ each) and probed with the secondary antibody (antirabbit; 1:10,000 dilution) for 1 h on the orbital tilting shaker at room temperature. After 1 h of incubation with secondary antibodies, the blots were washed 3 times with TBS-T (1×-15′; 2×5′ each) and then incubated with ECF reagent for 5 mins and then each blot scanned with 5100 Fuji Laser scanner at 25 uM resolution, 16 bit, green laser, at 400V and at 500 V.
# The Isocitrate dehydrogenase blot was stripped by incubating for 30 minutes with methanol, followed by two 10 minute washes with TBS-T, then 30 minutes of incubation with stripping buffer at 50 deg C., and followed by two washes with 100 ml or more of TBS-T for 30′ each. The blot was scanned in laser scanner to check for complete stripping. The blot was activated with methanol for 5 seconds, washed with water for 5 minutes, and TBST for 15 minutes. The blot was blocked for 1 hour with 5% blocking reagent in TBS-T at room temperature and then washed 3 times with TBS-T (1×-15′; 2×5′ each). This was then probed with the rabbit polyclonal antibody for ATP Citrate Lyase in 5% BSA (Cell Signaling #4332) at 1:1000 dilution overnight at 4 deg C. with shaking. After the overnight incubation with primary antibody for ATP Citrate Lyase, the membrane was washed 3 times with TBS-T (1×-15′; 2×5′ each) and probed with the secondary antibody (antirabbit; 1:10,000 dilution) for 1 h on the orbital tilting shaker at room temperature. After 1 h of incubation with secondary antibodies, the blot was washed 3 times with TBS-T (1×-15′; 2×5′ each) and then incubated with ECF reagent for 5 minutes and then each blot scanned with 5100 Fuji Laser scanner at 25 uM resolution, 16 bit, green laser, at 400V and at 500 V.
# The levels of IDH1, ATP citrate lyase and actin levels were determined by probing the blots with primary antibodies for IDH1, ATP citrate lyase and actin, essentially as described above.
# Hif1 alpha = experiment: Western blot, Hif1 alpha levels; assay type: cell-based, human; settings: whole cell lysates of normal cells
# Protocol: The Actin blots were stripped by incubating for 30 minutes with methanol, followed by two 10 minute washes with TBS-T, then 30 minutes of incubation with Stripping buffer at 50 deg C., and followed by two washes with 100 ml or more of TBS-T for 30′ each. The blots were scanned in laser scanner to check for complete stripping. The blots were activated with methanol for 5 seconds, washed with water for 5 minutes, and TBST for 15 minutes. The blots were blocked for 1 hour with 5% blocking reagent in TBS-T at room temperature and then washed 3 times with TBS-T (1×-15′; 2×5′ each) and probed with the primary antibody for Hif 1 alpha, Caspase 3 or PDHB in 5% BSA (at 1:200 by incubation overnight at 4 deg C. with gentle shaking. The primary antibody for Hif 1 alpha (Abcam ab2185; antirabbit) was at 1:500 dilution in 5% BSA. The primary antibody for Caspase 3 (Santacruz sc7272; antirabbit) was at 1:200 dilution in 5% BSA. The primary antibody for Pyruvate Dehydrogenase beta (PDHB) (Novus Biologicals H00005162-M03; antimouse) was at 1:500 dilution in 5% BSA. After incubation with primary antibodies, the membranes were washed 3 times with TBS-T (1×-15′; 2×5′ each) and probed with the secondary antibody (PDHB antimouse; Hif 1a and Caspase 3 antirabbit; 1:10,000 dilution) for 1 h at room temperature. […]
# Bcl2 = Bcl2 level after CoQ-10 in the presence of VEGF; assay type: cell-based; settings: normal fibroblast, co-administration with VEGF
smiles,measurement,setting,value
"COC1=C(OC)C(=O)C(C/C=C(\C)CC/C=C(\C)CC/C=C(\C)CC/C=C(\C)CC/C=C(\C)CC/C=C(\C)CC/C=C(\C)CC/C=C(\C)CC/C=C(\C)CCC=C(C)C)=C(C)C1=O [Q10, Coenzyme Q10]","Response, direction","SKMEL-28 mitochondria; 100 μM Q10, at 6 hr, protein spot 372",Up
same,Response,"SKMEL-28 mitochondria; 100 μM Q10, at 19 hr",Up only at 19 hr
same,Response,"SKMEL-28 mitochondria; 100 μM Q10, at 48 hr",Up at 48 hr
same,"ATP Citrate Lysase as % of CTRL, Normalized Intensity","ATP Citrate Lyase (ACL); HepG2, 5g glucose, amount 50",0.85 % of CTRL
same,"ATP Citrate Lysase as % of CTRL, Normalized Intensity","ATP Citrate Lyase (ACL); HepG2, 5g glucose, amount 100",0.79 % of CTRL
same,"ATP Citrate Lysase as % of CTRL, Normalized Intensity","ATP Citrate Lyase (ACL); HepG2, 22G glucose, amount 100",2.09 % of CTRL
same,"ATP Citrate Lysase as % of CTRL, Normalized Intensity","ATP Citrate Lyase (ACL); PACA2, 5g glucose, amount 50",0.68 % of CTRL
same,"ATP Citrate Lysase as % of CTRL, Normalized Intensity","ATP Citrate Lyase (ACL); PACA2, 5g glucose, amount 100",0.42 % of CTRL
same,"ATP Citrate Lysase as % of CTRL, Normalized Intensity","ATP Citrate Lyase (ACL); PACA2, 22G glucose, amount 50",1.12 % of CTRL
same,expression of ACL,ATP Citrate Lyase (ACL); cancer cells,dose-dependent decrease
same,lower band of Hif1a,Hif1 alpha,showed a decrease as well
same,levels of Bcl2,Bcl2,no effect on the levels of Bcl2
